According to paper PMC11959756, “PepH3-modified nanocarriers for delivery of therapeutics across the blood-brain barrier” (Fluids and Barriers of the CNS, 2025):

Assays:
[1] = system: primary rat brain endothelial cells (RBEC); assay: Cellular uptake of PepH3 peptide in living RBECs (confocal microscopy, image analysis); type: cell-based; details: Quasar 570 labelled PepH3 100 nM, 37 °C, confocal image analysis normalized to nuclear intensity, n=10-25
Procedure: To visualize the cellular uptake of PepH3 peptide alone, the cells were cultured in Matrigel coated glass bottom culture dishes (diameter: 3.5 cm, Greiner Bio-One, Germany). Confluent monolayers were incubated with the peptide solution (100 nM) diluted in the culture medium of RBEC at 37 °C for 30 min, 5–24 h. For the staining of cell nuclei, Hoechst 33342 dye (1 µg/mL, 10 min) was used. After incubation the culture medium was removed and cells were washed with Ringer-HEPES buffer (118 mM NaCl, 4.8 mM KCl, 2.5 mM CaCl2, 1.2 mM MgSO4, 5.5 mM D-glucose, 20 mM HEPES, pH 7.4) supplemented with 1% PDS. For visualization of PepH3, living cells was imaged using Leica TCS SP5 confocal laser scanning microscope (Leica Microsystems, Germany).

[2] = system: primary rat brain endothelial cells (RBEC); assay: Real-time impedance measurement of cellular toxicity on RBEC; type: cell-based; details: Quasar 570 labelled PepH3 1.875-120 µM, 24 h; impedance at 10 kHz; n=6-12
Procedure: Kinetics of the effect of PepH3 peptide, PepH3-tagged and non-tagged NPs on RBEC cells was monitored by impedance measurement at 10 kHz (RTCA-SP instrument; ACEA Biosciences, USA). Impedance measurement is a label-free, real time, non- invasive method, and correlates linearly with adherence, growth, number, and viability of cells. For background measurements 50 µL cell culture medium was added to the wells, then cells were seeded at a density of 6 × 10^3 cells/well to collagen type IV (100 µg/mL) and fibronectin (25 µg/mL) coated 96-well plates with integrated gold electrodes (E-plate 96, ACEA Biosciences, USA). Cells were cultured for 4 days and monitored every 5 min until the end of experiments. At the beginning of plateau phase of growth, cells were treated with PepH3 (1.875-120 µM) and PepH3-tagged and non-tagged NPs (0.1-3.0 mg/mL) for 24 h. Cell index was defined as Rn-Rb at each time point of measurement, where Rn is the cell-electrode impedance of the well when it contains cells and Rb is the background impedance of the well with the medium alone.

[3] = system: rat triple co-culture BBB model (RBEC, RPC, RAC); details: 10 nM, 30 min
[4] = cited from earlier work
Excerpt: There was a fast clearanc ...

## Q-AGILKRW-NH2 [PepH3, cationic 7-residue peptide (AGILKRW), BBB peptide shuttle derived from Dengue virus type-2 capsid protein; tested Quasar 570 labelled]
[1]
  Peptide internalization after 5 h compared to the 30 min group: 1.9 fold
  Peptide internalization after 24 h compared to the 30 min group: 6 fold
[2]
  Effect on impedance (viability) of RBEC cell layers: good cell viability
[3]
  Papp of PepH3 relative to transcellular BBB marker albumin (EBA): 71 times
[4]; biodistribution profile compared to FC5
  Accumulation in liver, lung and kidney in vivo: low accumulation
[4]; radiolabeled PepH3 peptide derivatives, biodistribution
  Brain uptake in vivo: high brain uptake
